Here are results for 15 molecules from US11046658B2, “Aminopyrazine derivatives as PI3K-γ inhibitors” (Incyte Corporation, priority 2018, dated 2021).

Counter-ions that a name gives are not always drawn. Like-named read-outs stand apart in the source and are kept apart here. Where only a bound is given, the exact number is not on record here.

The test system of assay [1] is Phosphorylated Ribosomal Protein S6 (RPS6) in THP-1 cells. Description: THP-1 RPS6 ELISA Assay. Format: cell-based, Human. To be noted: THP-1 cells, 10 nM MCP-1, read-out: PI3Kγ_THP1_RPS6_ELISA IC50. In a few lines:
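Cells serum-starved overnight, pre-incubated with compounds 2 h at 37° C, then stimulated with 10 nM MCP-1 for 15 min. Lysates assayed for phospho-RPS6 by ELISA read at 450 nm. IC50 from percent inhibition vs log concentration curve fit.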
On the technique in general: In an ELISA, binding on a coated surface is turned into a signal by an enzyme label.

The target of assay [2] is PI3Kδ (p110δ/p85α) Recombinant Human Protein (Homo sapiens (Human), UniProt O00329). Description: PI3Kδ Scintillation Proximity Assay. It counts as biochemical. To be noted: 2 μM ATP, 20 μM PIP2. An excerpt: Materials: [γ-^33P]ATP (10 mCi/mL) and Wheat Germ Agglutinin (WGA) YSi SPA Scintillation Beads was purchased from Perkin Elmer (Waltham, Mass.). Lipid kinase substrate, D-myo-Phosphatidylinositol 4,5-bisphosphate (PtdIns(4,5)P2)D (+)-sn-1,2-di-O-octanoylglyceryl, 3-O-phospho linked (PIP2), CAS 204858-53-7, was purchased from Echelon Biosciences (Salt Lake City, Utah). PI3Kδ (p110δ/p85α) Recombinant Human Protein was purchased from Eurofins (St Charles, Mo.). ATP, MgCl2, DTT, EDTA, MOPS and CHAPS were purchased from Sigma Aldrich (St. Louis, Mo.).
(§1) The kinase reaction was conducted in polystyrene 384-well Greiner Bio-one white plate from Thermo Fisher Scientific in a final volume of 25 μL. Inhibitors were first diluted serially in DMSO and added to the plate wells before the addition of other reaction components. The final concentration of DMSO in the assay was 2%. The PI3Kδ assay was carried out at room temperature in 20 mM MOPS, pH 6.7, 10 mM MgCl2, 5 mM DTT and CHAPS 0.03%. Reactions were initiated by the addition of ATP, the final reaction mixture consisted of 20 μM PIP2, 2 μM ATP, 0.5 μCi [γ-^33P] ATP, 3.4 nM PI3Kδ. Reactions were incubated for 120 min and terminated by the addition of 40 μL SPA beads suspended in quench buffer: 163 mM potassium phosphate pH 7.8, 20% glycerol, 25 mM EDTA. The final concentration of SPA beads is 1.0 mg/mL. After the plate sealing, plates were shaken overnight at room temperature and centrifuged at 1500 rpm for 10 min, the radioactivity of the product was determined by scintillation counting on Topcount (PerkinElmer). IC50 determination was performed by fitting the curve of percent of the solvent control activity versus the log of the inhibitor concentration using the GraphPad Prism 6.0 software.
Background: Scintillation proximity formats need no separation of bound from free tracer.

Assay [3] addresses PI3Kγ (p110γ) Recombinant Human Protein (Homo sapiens (Human), UniProt P48736). Description: PI3K-γ Scintillation Proximity Assay. Format: biochemical. To be noted: 2 μM ATP, 20 μM PIP2.
Text: Materials: [γ-^33P]ATP (10 mCi/mL) and Wheat Germ Agglutinin (WGA) YSi SPA Scintillation Beads was purchased from Perkin Elmer (Waltham, Mass.). Lipid kinase substrate, D-myo-Phosphatidylinositol 4,5-bisphosphate (PtdIns(4,5)P2)D (+)-sn-1,2-di-O-octanoylglyceryl, 3-O-phospho linked (PIP2), CAS 204858-53-7, was purchased from Echelon Biosciences (Salt Lake City, Utah). PI3Kγ (p110γ) Recombinant Human Protein was purchased from Life technology (Grand Island, N.Y.). ATP, MgCl2, DTT, EDTA, MOPS and CHAPS were purchased from Sigma Aldrich (St. Louis, Mo.).
as §1, with “PI3Kγ” for “PI3Kδ”, “13” for “3.4”, “PI3Kγ.” for “PI3Kδ.”, “(Perkin-Elmer).” for “(PerkinElmer).”

Sequence of PI3Kγ (p110γ) Recombinant Human Protein (P48736 whole entry): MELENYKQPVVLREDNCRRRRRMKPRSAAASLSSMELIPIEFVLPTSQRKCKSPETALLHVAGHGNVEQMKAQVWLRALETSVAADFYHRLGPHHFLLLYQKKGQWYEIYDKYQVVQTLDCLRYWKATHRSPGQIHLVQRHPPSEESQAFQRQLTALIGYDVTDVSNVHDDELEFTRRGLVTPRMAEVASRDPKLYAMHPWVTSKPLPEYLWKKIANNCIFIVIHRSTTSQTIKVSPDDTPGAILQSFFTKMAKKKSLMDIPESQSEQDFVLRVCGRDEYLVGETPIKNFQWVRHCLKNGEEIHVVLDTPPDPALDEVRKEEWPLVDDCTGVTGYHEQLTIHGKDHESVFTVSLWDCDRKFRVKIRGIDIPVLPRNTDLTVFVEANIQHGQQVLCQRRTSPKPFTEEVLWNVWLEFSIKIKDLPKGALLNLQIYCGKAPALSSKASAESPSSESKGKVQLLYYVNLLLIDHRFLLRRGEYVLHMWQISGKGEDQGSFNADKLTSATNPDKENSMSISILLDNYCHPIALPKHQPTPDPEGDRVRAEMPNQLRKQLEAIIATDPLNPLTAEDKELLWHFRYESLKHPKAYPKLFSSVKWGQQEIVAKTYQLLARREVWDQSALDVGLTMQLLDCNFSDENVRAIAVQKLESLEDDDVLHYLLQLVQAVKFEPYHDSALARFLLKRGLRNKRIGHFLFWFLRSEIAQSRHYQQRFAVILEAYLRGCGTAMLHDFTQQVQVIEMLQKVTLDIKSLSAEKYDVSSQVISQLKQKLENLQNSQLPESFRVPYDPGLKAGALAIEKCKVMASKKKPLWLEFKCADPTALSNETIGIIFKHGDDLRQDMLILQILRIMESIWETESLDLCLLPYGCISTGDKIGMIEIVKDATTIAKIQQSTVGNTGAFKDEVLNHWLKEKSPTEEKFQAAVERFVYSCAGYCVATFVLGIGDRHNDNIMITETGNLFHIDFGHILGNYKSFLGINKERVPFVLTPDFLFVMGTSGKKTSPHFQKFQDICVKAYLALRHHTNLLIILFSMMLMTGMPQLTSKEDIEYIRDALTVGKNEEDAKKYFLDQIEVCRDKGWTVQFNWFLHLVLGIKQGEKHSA
Sequence of PI3Kδ (p110δ/p85α) Recombinant Human Protein (O00329 whole entry): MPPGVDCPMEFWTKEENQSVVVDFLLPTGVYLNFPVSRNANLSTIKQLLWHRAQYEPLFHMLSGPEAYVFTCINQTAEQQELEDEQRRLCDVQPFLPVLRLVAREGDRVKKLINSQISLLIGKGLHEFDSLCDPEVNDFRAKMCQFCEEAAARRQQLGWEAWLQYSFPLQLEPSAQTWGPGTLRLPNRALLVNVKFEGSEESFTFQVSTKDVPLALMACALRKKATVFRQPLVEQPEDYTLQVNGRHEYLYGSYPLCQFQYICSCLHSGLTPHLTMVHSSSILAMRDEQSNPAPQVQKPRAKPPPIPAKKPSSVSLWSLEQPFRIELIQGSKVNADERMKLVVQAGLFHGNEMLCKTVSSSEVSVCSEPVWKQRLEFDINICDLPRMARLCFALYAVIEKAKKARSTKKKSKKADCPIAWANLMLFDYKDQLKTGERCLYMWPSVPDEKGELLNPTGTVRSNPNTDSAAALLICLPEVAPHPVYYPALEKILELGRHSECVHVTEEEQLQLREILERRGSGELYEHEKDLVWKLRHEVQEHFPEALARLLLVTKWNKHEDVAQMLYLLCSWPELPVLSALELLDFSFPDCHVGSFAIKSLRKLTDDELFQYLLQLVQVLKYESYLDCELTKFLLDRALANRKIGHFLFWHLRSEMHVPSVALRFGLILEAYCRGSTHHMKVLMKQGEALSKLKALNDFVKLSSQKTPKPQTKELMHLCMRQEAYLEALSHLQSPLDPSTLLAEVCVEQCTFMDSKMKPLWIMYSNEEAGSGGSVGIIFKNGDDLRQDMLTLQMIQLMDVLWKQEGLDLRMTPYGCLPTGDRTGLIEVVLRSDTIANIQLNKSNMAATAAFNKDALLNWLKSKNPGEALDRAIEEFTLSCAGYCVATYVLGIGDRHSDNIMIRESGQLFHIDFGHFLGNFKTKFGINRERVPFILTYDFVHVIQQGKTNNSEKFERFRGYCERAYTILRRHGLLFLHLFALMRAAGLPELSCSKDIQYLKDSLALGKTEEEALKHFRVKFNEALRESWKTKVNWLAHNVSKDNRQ
Sequence of PI3Kδ (p110δ/p85α) Recombinant Human Protein (P27986 whole entry partner): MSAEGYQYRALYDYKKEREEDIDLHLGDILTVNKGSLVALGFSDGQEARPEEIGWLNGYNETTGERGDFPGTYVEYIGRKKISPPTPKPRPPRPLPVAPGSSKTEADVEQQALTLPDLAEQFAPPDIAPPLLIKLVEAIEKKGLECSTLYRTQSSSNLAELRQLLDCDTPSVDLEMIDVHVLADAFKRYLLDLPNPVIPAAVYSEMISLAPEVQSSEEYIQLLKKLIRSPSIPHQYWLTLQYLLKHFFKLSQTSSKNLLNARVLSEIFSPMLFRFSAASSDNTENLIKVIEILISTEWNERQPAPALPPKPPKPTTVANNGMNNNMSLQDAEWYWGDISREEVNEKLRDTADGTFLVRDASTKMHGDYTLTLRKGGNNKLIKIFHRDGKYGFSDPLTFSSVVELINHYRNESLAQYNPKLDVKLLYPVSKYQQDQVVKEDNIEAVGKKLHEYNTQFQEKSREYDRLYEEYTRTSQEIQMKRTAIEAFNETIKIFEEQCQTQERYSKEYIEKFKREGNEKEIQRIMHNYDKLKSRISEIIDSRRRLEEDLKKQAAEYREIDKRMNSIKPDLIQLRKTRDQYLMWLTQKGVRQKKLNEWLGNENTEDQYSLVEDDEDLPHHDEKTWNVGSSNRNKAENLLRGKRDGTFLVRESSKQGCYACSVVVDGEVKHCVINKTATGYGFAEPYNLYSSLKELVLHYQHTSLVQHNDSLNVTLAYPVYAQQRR

Take “2-(3-(5-amino-6-(2-methylthiazol-5-yl)pyrazin-2-yl)-4-methylphenyl)-3,3,3-trifluoro-2-hydroxypropanamide trifluoroacetate [Example 72]”: the IC50 in assay [1] (Table A3), in assay [2] (Table A3) and in assay [3] (Table A3) was less than 0.1 µM each time.

As to `Cc1ccc(C(O)(C(N)=O)C(F)(F)F)cc1-c1cnc(N)c(C2CN(S(=O)(=O)c3cnn(C)c3)C2)n1` (single isomer, unassigned) [Example 107, 2-(3-(5-Amino-6-(1-((1-methyl-1H-pyrazol-4-yl)sulfonyl)azetidin-3-yl)pyrazin-2-yl)-4-methylphenyl)-3,3,3-trifluoro-2-hydroxypropanamide, trifluoroacetate salt], the IC50 (commonly the concentration that gives 50% inhibition) in assay [1] (Homo sapiens, Table A4) was less than 1 µM; in assay [2] (Table A4), less than 2 µM; in assay [3] (Table A4), less than 0.1 µM.

Take `CCOC(=O)C1CC(c2nc(-c3cc(C(O)(C(N)=O)C(F)(F)F)ccc3C)cnc2N)C1` (single isomer, unassigned) [Example 108, Ethyl 3-(3-amino-6-(5-(3-amino-1,1,1-trifluoro-2-hydroxy-3-oxopropan-2-yl)-2-methylphenyl)pyrazin-2-yl)cyclobutane-1-carboxylate]: the IC50 is less than 2 µM in assay [2] (Table A4) and less than 0.5 µM in assay [3] (Table A4).

Take `CCOC(=O)C1CC(c2nc(-c3cc(C(O)(C(N)=O)C(F)(F)F)ccc3C)cnc2N)C1` (single isomer, unassigned) [Example 109, Ethyl 3-(3-amino-6-(5-(3-amino-1,1,1-trifluoro-2-hydroxy-3-oxopropan-2-yl)-2-methylphenyl)pyrazin-2-yl)cyclobutane-1-carboxylate]: the IC50 in assay [2] (Table A4) was less than 0.5 µM; in assay [3] (Table A4) it was less than 0.1 µM.

For the molecule `Cc1ccc(C(O)(C(N)=O)C(F)(F)F)cc1-c1cnc(N)c(C2CC(C(=O)NC(C)C)C2)n1` (single isomer, unassigned) [Example 110, 3-(3-Amino-6-(5-(3-amino-1,1,1-trifluoro-2-hydroxy-3-oxopropan-2-yl)-2-methylphenyl)pyrazin-2-yl)-N-isopropylcyclobutane-1-carboxamide], the IC50 in assay [2] (Table A4) and in assay [3] (Table A4) was less than 0.5 µM in each case.

Regarding `Cc1ccc(C(O)(C(N)=O)C(F)(F)F)cc1-c1cnc(N)c(C2CC(C(=O)NC(C)C)C2)n1` (single isomer, unassigned) [Example 111, 3-(3-Amino-6-(5-(3-amino-1,1,1-trifluoro-2-hydroxy-3-oxopropan-2-yl)-2-methylphenyl)pyrazin-2-yl)-N-isopropylcyclobutane-1-carboxamide], in assay [3] (Table A4), the IC50 is less than 0.1 µM.

As to `Cc1ccc(C(O)(C(=O)N(C)C)C(F)(F)F)cc1-c1cnc(N)c(-n2cncn2)n1` (stereo not shown) [Example 95, 2-(3-(5-Amino-6-(1H-1,2,4-triazol-1-yl)pyrazin-2-yl)-4-methylphenyl)-3,3,3-trifluoro-2-hydroxy-N,N-dimethylpropanamide trifluoroacetate], the IC50 in assay [2] (Table A3) and in assay [3] (Table A3) was less than 0.5 µM throughout.

On to `Cc1ccc(C(O)(C(N)=O)C(F)(F)F)cc1-c1cnc(N)c(N2CCN(C3CC3)C(=O)C2)n1` (stereo not shown) [Example 112, 2-(3-(5-amino-6-(4-cyclopropyl-3-oxopiperazin-1-yl)pyrazin-2-yl)-4-methylphenyl)-3,3,3-trifluoro-2-hydroxypropanamide trifluoroacetate], for which the IC50 is less than 0.5 µM in assay [1] (Homo sapiens, Table A4) and less than 0.5 µM in assay [2] (Table A4).

With `Cc1ccc(C(O)(C(N)=O)C(F)(F)F)cc1-c1cnc(N)c(N2CCN(C(C)(C)C)C(=O)C2)n1` (stereo not shown) [Example 113, 2-(3-(5-amino-6-(4-tert-butyl-3-oxopiperazin-1-yl)pyrazin-2-yl)-4-methylphenyl)-3,3,3-trifluoro-2-hydroxypropanamide trifluoroacetate], the IC50 in assay [1] (Homo sapiens, Table A4) is less than 0.5 µM; in assay [2] (Table A4), less than 0.5 µM.

Regarding `Cc1ccc(C(O)(C(N)=O)C(F)(F)F)cc1-c1cnc(N)c(N2CCN(c3ccccc3)CC2)n1` (stereo not shown) [Example 116, 2-(3-(5-amino-6-(4-phenylpiperazin-1-yl)pyrazin-2-yl)-4-methylphenyl)-3,3,3-trifluoro-2-hydroxypropanamide trifluoroacetate], the IC50 is less than 0.1 µM in assay [1] (Homo sapiens, Table A4, cells given with + symbol) and less than 0.5 µM in assay [2] (Table A4).

For the molecule `Cc1ccc(C(O)(C(N)=O)C(F)(F)F)cc1-c1cnc(N)c(N2CCN(c3ccccc3C)CC2)n1` (stereo not shown) [Example 118, 2-(3-(5-amino-6-(4-o-tolylpiperazin-1-yl)pyrazin-2-yl)-4-methylphenyl)-3,3,3-trifluoro-2-hydroxypropanamide trifluoroacetate], the half-maximal inhibitory concentration (IC50) is less than 1 µM in assay [1] (Homo sapiens, Table A4) and less than 0.5 µM in assay [2] (Table A4).

In the case of `Cc1ccc(C)c(N2CCN(c3nc(-c4cc(C(O)(C(N)=O)C(F)(F)F)ccc4C)cnc3N)CC2)c1` (stereo not shown) [Example 119, 2-(3-(5-amino-6-(4-(2,5-dimethylphenyl)piperazin-1-yl)pyrazin-2-yl)-4-methylphenyl)-3,3,3-trifluoro-2-hydroxypropanamide trifluoroacetate], the IC50 in assay [1] (Homo sapiens, Table A4) was more than 1 µM; in assay [2] (Table A4), less than 0.5 µM.

For the molecule `Cc1ccc(C(O)(C(N)=O)C(F)(F)F)cc1-c1cnc(N)c(N2CCN(c3cccc(C(F)(F)F)c3)CC2)n1` (stereo not shown) [Example 121, 2-(3-(5-amino-6-(4-(3-(trifluoromethyl)phenyl)piperazin-1-yl)pyrazin-2-yl)-4-methylphenyl)-3,3,3-trifluoro-2-hydroxypropanamide trifluoroacetate], the IC50 in assay [1] (Homo sapiens, Table A4) is more than 1 µM; in assay [2] (Table A4), less than 0.5 µM.

In the case of `Cc1ccc(C(O)(C(N)=O)C(F)(F)F)cc1-c1cnc(N)c(N2CC(=O)N(c3ccc(O)cc3)[C@@H](CO)C2)n1` (stereo partly drawn) [Example 124, 2-(3-(5-amino-6-((R)-3-(hydroxymethyl)-4-(4-hydroxyphenyl)-5-oxopiperazin-1-yl)pyrazin-2-yl)-4-methylphenyl)-3,3,3-trifluoro-2-hydroxypropanamide trifluoroacetate], the IC50 was less than 1 µM in assay [1] (Homo sapiens, Table A4) and less than 0.5 µM in assay [2] (Table A4).

As for `CCOc1ccccc1N1CCN(c2nc(-c3cc(C(O)(C(N)=O)C(F)(F)F)ccc3C)cnc2N)CC1` (stereo not shown) [Example 129, 2-(3-(5-amino-6-(4-(2-ethoxyphenyl)piperazin-1-yl)pyrazin-2-yl)-4-methylphenyl)-3,3,3-trifluoro-2-hydroxypropanamide trifluoroacetate], the IC50 in assay [1] (Homo sapiens, Table A4) was less than 1 µM; in assay [2] (Table A4), less than 0.5 µM.
